Laboratory results reported in patent US20260317313A1, “DNA Polymerase Theta Inhibitors Containing Non-Saturated 5-Membered Heterocyclic Rings and Use Thereof” (Thomas Jefferson University, priority 2022, published 2026).

The compounds below were run against T1, recombinant human Polq polymerase domain (residues 1792-2590) (Homo sapiens, UniProt O75417) (assay: Cy5 fluorescence assay of Polq polymerase enzymatic activity). Conditions: 5 nM Polq polymerase domain, 60 nM primer-template, 50 uM dNTPs, 37° C., 18 min, 2.5% DMSO, triplicate; read-out: Polq IC50.
T1 sequence (O75417 1792-2590): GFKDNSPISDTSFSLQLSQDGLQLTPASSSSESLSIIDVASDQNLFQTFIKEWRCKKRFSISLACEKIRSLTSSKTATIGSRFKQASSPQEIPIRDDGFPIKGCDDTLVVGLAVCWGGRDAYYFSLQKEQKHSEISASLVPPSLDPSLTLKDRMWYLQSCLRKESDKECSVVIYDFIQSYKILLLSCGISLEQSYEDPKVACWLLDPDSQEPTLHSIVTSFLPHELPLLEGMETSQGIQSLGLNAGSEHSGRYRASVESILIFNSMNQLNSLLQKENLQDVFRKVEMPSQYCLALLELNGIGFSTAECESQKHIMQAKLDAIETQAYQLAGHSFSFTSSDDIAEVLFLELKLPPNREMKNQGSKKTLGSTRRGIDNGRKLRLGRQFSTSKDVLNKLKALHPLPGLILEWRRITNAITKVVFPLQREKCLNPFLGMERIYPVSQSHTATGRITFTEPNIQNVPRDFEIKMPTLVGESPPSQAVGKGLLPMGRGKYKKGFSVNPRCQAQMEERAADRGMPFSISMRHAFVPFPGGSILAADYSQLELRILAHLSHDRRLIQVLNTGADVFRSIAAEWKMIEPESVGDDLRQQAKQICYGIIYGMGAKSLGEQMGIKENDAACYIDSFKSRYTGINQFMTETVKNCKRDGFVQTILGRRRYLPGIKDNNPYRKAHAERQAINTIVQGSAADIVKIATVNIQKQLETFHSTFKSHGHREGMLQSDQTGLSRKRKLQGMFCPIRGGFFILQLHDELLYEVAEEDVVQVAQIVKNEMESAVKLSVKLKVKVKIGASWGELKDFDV
Format: biochemical
Description: The following Cy5 fluorescence assay was used to measure the ability of compounds to inhibit Polq polymerase domain in vitro. The fluorescent based assay was performed as follows: 60 nM of the pre-annealed primer-template containing a 5′ Cy5 fluorophore conjugated template strand (SEQ ID NO 6: 5′-/5Cy5/ […] GGACAG-3′), a downstream complementary oligo conjugated with a 3′ Blackhole quencher (SEQ ID NO 7: 5′-CTAAGCTCACAGTG/3IAbRQSp/-3′) and a primer strand (SEQ ID NO 8: 5′-CTGTCCTGCATGATG-3′) was mixed with 50 uM 2′-deoxyribonucleoside triphosphates (dNTPs), 0.1 mg/mL Bovine serum albumin (BSA), 0.01% NP-40, 10% glycerol, 1 mM dithiothreitol (DTT), 10 mM MgCl2, 25 mM TrisHCl pH 7.8 in the presence of 2.5% DMSO with or without various concentrations (7-point dilution series) of Polq small molecule inhibitors represented by Formula I at 37° C. in a volume of 40 μL.
In the case of `CC(C)(C)OC(=O)n1ccn(-c2cc(C(F)(F)F)cc(C(F)(F)F)c2OC(=O)N(CC#N)c2ccc(F)cc2)c1=O` [Example 19, tert-butyl 3-(2-{[(cyanomethyl)(4-fluorophenyl)carbamoyl]oxy}-3,5-bis(trifluoromethyl)phenyl)-2-oxo-2,3-dihydro-1H-imidazole-1-carboxylate], the IC50 is reported as 295 nM.

Same assay, conditions: Polq IC50, 5 nM Polq polymerase domain, 60 nM primer-template, 50 uM dNTPs, 37° C., 18 min, 2.5% DMSO, triplicate
In the case of `[2H]C([2H])([2H])N(C(=O)Oc1c(-c2cn(C3C[C@@H](O)[C@@H](O)C3)nn2)cc(C(F)(F)F)cc1C(F)(F)F)c1ccc(F)cc1` (mixture of isomers) [Example 12, 2-{1-[(3R,4S)-3,4-dihydroxycyclopentyl]-1H-1,2,3-triazol-4-yl}-4,6-bis(trifluoromethyl)phenyl N-(4-fluorophenyl)-(methyl-d3)carbamate (Racemate)], the IC50 is reported as 2.2 nM.
`CN(C(=O)Oc1c(-c2cn(CCCCCCCCC(=O)Nc3cccc4c3C(=O)N(C3CCC(=O)NC3=O)C4=O)nn2)cc(C(F)(F)F)cc1C(F)(F)F)c1ccc(F)cc1` (stereo not drawn) [Example 7, 2-(1-(9-((2-(2,6-dioxopiperidin-3-yl)-1,3-dioxoisoindolin-4-yl)amino)-9-oxononyl)-1H-1,2,3-triazol-4-yl)-4,6-bis(trifluoromethyl)phenyl (4-fluorophenyl) (methyl)carbamate] gave an IC50 of 5.8 nM.
`[2H]C([2H])([2H])N(C(=O)Oc1c(-c2cn(CC3(O)CNC3)nn2)cc(C(F)(F)F)cc1C(F)(F)F)c1ccc(F)cc1` [Example 15, 2-{1-[(3-hydroxyazetidin-3-yl)methyl]-1H-1,2,3-triazol-4-yl}-4,6-bis(trifluoromethyl)phenyl N-(4-fluorophenyl)-N-(methyl-d3)carbamate] was tested, and the IC50 was 1.9 nM.
Work on `CN(C(=O)Oc1c(-c2cn(CC3(O)CNC3)nn2)cc(C(F)(F)F)cc1C(F)(F)F)c1ccc(F)cc1` [Example 14, 2-{1-[(3-hydroxyazetidin-3-yl)methyl]-1H-1,2,3-triazol-4-yl}-4,6-bis(trifluoromethyl)phenyl N-(4-fluorophenyl)-N-methylcarbamate] yielded an IC50 of 2.3 nM.
`[2H]C([2H])([2H])N(C(=O)Oc1c(-c2cn(C3CS(=O)(=O)CC3O)nn2)cc(C(F)(F)F)cc1C(F)(F)F)c1ccc(F)c(Cl)c1F` (stereo not drawn) [Example 24, 2-[1-(4-hydroxy-1,1-dioxo-1λ^6-thiolan-3-yl)-1H-1,2,3-triazol-4-yl]-4,6-bis(trifluoromethyl)phenyl N-(3-chloro-2,4-difluorophenyl)-N-(methyl-d3)carbamate] gave an IC50 of 13.6 nM.
With `[2H]C([2H])([2H])N(C(=O)Oc1c(-c2nnco2)cc(C(F)(F)F)cc1C(F)(F)F)c1ccc(F)cc1` [Example 31, 2-(1,3,4-oxadiazol-2-yl)-4,6-bis(trifluoromethyl)phenyl N-(4-fluorophenyl)-N-(methyl-d3)carbamate] the IC50 was 5.6 nM.
`CN(C(=O)Oc1c(-c2cn(CCOCCOCC(=O)Nc3cccc4c3C(=O)N(C3CCC(=O)NC3=O)C4=O)nn2)cc(C(F)(F)F)cc1C(F)(F)F)c1ccc(F)cc1` (stereo not drawn) [Example 6, 2-(1-(2-(2-(2-((2-(2,6-dioxopiperidin-3-yl)-1,3-dioxoisoindolin-4-yl)amino)-2-oxoethoxy)ethoxy)ethyl)-1H-1,2,3-triazol-4-yl)-4,6-bis(trifluoromethyl)phenyl (4-fluorophenyl)(methyl)carbamate] showed an IC50 of 4 nM.
In the case of `[2H]C([2H])([2H])N(C(=O)Oc1c(-c2cn(C3CN(S(=O)(=O)CCN)C3)nn2)cc(C(F)(F)F)cc1C(F)(F)F)c1ccc(F)c(Cl)c1F` [Example 33, 2-{1-[1-(2-aminoethanesulfonyl)azetidin-3-yl]-1H-1,2,3-triazol-4-yl}-4,6-bis(trifluoromethyl)phenyl N-(3-chloro-2,4-difluorophenyl)-N-(methyl-d3)carbamate], the IC50 is reported as 2.9 nM.
